{"source": "patent US10526358B2", "about": "“Crystalline forms” (GRUNENTHAL GMBH, priority 2016, dated 2020)", "key": {"[1]": {"details": "cited from earlier work"}, "[2]": {"details": "FDA SBA; cited from earlier work"}, "[3]": {"assay": "apparent water solubility at room temperature", "type": "physicochemical"}, "[4]": {"details": "FDA SBA; cited from earlier work", "remark": "listed apart in the source"}, "[5]": {"details": "in vivo; cited from earlier work"}}}
{"smiles": "O=P(O)(O)C(O)(Cn1ccnc1)P(=O)(O)O", "note": "[Zoledronic acid, (1-hydroxy-2-imidazol-1-yl-1-phosphono-ethyl)phosphonic acid]", "values": [{"measurement": "solubility in 0.1 N HCl solution", "setting": "[1]; 0.1 N HCl", "value": "sparingly soluble"}, {"measurement": "solubility in 0.1 N NaOH", "setting": "[1]; 0.1 N NaOH", "value": "freely soluble"}, {"measurement": "solubility in various organic solvents", "setting": "[1]; various organic solvents", "value": "practically insoluble"}, {"measurement": "solubility in water", "setting": "[1]; water", "value": "sparingly soluble"}, {"measurement": "permeability in the GI tract", "setting": "[2]", "value": "poor permeability"}, {"measurement": "apparent water solubility", "setting": "[3]", "value": "few"}, {"measurement": "oral bioavailability", "setting": "[4]", "value": "approximately 1%"}, {"measurement": "gastric and intestinal irritations", "setting": "[5]", "value": "severe gastric and intestinal irritations"}]}
